Measurements published in article PMC4872164, “Therapeutic Blockade of Immune Complex-Mediated Glomerulonephritis by Highly Selective Inhibition of Bruton’s Tyrosine Kinase” (Scientific Reports, 2016).

Target: Bruton's tyrosine kinase (BTK) (Homo sapiens, UniProt Q06187)
Assay: TR-FRET LanthaScreen binding assay (affinity, kinact/Ki […] ^-1 s^-1); BTK enzyme IC50; co-crystallization and mass spectrometry (not shown)
Type: biochemical

Bruton's tyrosine kinase (BTK), sequence (Q06187 2-659): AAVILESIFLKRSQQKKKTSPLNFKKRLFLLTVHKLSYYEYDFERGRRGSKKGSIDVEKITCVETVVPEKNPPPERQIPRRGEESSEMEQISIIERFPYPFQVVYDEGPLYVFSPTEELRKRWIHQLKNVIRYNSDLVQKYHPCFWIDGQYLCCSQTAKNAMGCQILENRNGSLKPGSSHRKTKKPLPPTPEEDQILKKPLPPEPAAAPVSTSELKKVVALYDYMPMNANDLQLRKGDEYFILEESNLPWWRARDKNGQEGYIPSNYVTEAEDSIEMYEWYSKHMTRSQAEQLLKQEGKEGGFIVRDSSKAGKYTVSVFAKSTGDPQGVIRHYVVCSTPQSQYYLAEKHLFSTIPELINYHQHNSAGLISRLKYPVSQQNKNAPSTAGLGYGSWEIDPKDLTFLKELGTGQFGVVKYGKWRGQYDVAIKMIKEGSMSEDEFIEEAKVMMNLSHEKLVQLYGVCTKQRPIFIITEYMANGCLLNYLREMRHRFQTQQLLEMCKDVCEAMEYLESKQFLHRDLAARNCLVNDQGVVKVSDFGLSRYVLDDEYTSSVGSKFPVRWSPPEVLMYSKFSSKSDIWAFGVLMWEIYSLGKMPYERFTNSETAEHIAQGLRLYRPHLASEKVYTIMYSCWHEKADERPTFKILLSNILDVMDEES

BI-BTK-1
IC50: 900 pM
